Measured values from patent US9023789B2, “Amylin analogs and pharmaceutical compositions thereof” (Novo Nordisk A/S, priority 2012, dated 2015).
pEC50, pIC50: −log10 of the molar value. Numbered stars: 1 amine (or outer) side, 2 acyl side, 3 side chain; on linkers, the order of the positions; unused ones are H or OH. Bridge positions count the residues as written; N and C are the ends. Side chains are listed from the residue outwards. Peptide text beside a SMILES is read from it. * marks the point of attachment. C20 diacid = O=C(O)CCCCCCCCCCCCCCCCCCC(=O)*; γGlu = O=C(O)[C@H](CCC(=O)[*:2])N[*:1]; AEEA = NCCOCCOCC(=O)O

Key:
[1] = biological target: T1, human amylin 3(a) receptor (human calcitonin receptor + RAMP-3) in BHK570 cells (Homo sapiens, UniProt O60896+P30988); assay: ASSAY (II)a functional assay, human amylin receptor (CRE luciferase); format: cell-based; conditions: for pEC50: human amylin receptor functional potency, assay (II), read-out: hAmylin-R funct. EC50
T1 construct: expressed in transfected cells
Method in brief: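 Ligand exposure 3 h at 37 °C, 5% CO2 in DMEM with 10% FBS, 10 mM Hepes pH 7.4. cAMP-driven luciferase read by luminescence after 30 min LucLite at room temperature.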

[2] = biological target: T2, rat amylin receptor (rat calcitonin receptor + rat RAMP 3) (Rattus norvegicus, UniProt P32214+Q9JJ73); assay: ASSAY (VI) binding to the rat amylin receptor; conditions: for pIC50: binding to rat amylin receptor, read-out: rAmylin-R bind IC50
T2 construct: expressed in transfected cells; host or cells: BHK tk'ts 13 (transient, FuGENE 6), membranes
T2 sequence (P32214 25-479 isoform P32214-2 limits assumed): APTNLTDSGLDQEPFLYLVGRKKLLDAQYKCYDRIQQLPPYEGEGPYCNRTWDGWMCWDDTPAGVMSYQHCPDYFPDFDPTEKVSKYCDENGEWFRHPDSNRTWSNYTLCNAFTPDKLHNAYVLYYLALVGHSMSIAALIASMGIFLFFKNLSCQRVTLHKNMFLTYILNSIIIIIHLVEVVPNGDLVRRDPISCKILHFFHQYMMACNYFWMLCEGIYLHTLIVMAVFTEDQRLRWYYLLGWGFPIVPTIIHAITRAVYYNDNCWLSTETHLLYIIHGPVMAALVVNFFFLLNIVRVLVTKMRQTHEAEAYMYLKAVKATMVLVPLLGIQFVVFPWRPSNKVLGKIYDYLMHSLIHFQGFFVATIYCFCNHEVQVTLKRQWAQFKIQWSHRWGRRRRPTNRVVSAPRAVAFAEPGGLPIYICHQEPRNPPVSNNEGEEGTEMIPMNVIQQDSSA
T2 sequence (Q9JJ73 23-147 partner): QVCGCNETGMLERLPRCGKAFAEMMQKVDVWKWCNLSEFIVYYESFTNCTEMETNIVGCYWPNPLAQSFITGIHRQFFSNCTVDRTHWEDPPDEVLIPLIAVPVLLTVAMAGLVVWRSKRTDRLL
Method in brief: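 This assay measured binding to the rat amylin receptor. BHK tk′ts 13 cells were transiently transfected with the rat calcitonin receptor using FuGENE® 6 (Roche), following the manufacturer's recommendations. About 48 hours after transfection, the cells were harvested and membranes were prepared from them for the binding determination.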

[3] = biological target: T3, human amylin receptor (membranes from Amylin 3(a)/CRE-luc cells) (Homo sapiens, UniProt O60896+P30988); assay: ASSAY (V) binding to the human amylin receptor (SPA, 125I-rat amylin); conditions: for pIC50: Table 4, read-out: hAmylin-R bind IC50;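 for all read-outs here: competition binding of cell membranes (35 ng/µL) mixed with SPA beads in 384-well plates at 40 µL total volume, read by scintillation counting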
T3 construct: expressed in transfected cells
T3 sequence (P30988 25-474): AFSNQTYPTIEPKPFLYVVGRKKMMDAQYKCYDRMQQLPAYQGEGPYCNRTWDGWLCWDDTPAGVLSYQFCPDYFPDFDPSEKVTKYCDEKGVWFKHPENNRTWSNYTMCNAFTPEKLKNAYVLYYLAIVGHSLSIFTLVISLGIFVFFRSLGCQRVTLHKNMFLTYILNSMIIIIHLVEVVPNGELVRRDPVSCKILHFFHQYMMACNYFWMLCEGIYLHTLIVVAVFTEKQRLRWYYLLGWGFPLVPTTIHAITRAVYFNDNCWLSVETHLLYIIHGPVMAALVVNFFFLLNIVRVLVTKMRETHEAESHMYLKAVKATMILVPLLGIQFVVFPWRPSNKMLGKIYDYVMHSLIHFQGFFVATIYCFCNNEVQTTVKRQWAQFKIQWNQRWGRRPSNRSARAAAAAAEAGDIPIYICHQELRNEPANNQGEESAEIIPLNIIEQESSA
T3 sequence (O60896 24-148 partner): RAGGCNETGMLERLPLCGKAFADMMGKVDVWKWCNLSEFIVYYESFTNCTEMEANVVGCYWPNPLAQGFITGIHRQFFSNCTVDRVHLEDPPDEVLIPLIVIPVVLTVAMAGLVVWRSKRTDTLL

[4] = hCTR funct. EC50 divided by hAmylin-R funct. EC50
[5] = hCTR funct. EC50 over hAmylin-R funct. EC50
[6] = human functional selectivity: hCTR funct. EC50 / hAmylin-R funct. EC50
[7] = Table 7, rat binding selectivity, rCTR IC50 / rAmylin-R IC50
[8] = Table 7a (preferred compounds), rat binding selectivity, rCTR IC50 / rAmylin-R IC50
[9] = ratio of rCTR bind IC50 to rAmylin-R bind IC50
[10] = Table 5, selectivity, hCTR bind IC50 / hAmylin-R bind IC50
[11] = Table 5a, selectivity, hCTR bind IC50 / hAmylin-R bind IC50
[12] = Table 5b, selectivity, hCTR bind IC50 / hAmylin-R bind IC50
[13] = Table 5c, selectivity, hCTR bind IC50 / hAmylin-R bind IC50
[14] = Table 7, human binding selectivity, included for comparison
[15] = Table 7a (preferred compounds), human binding selectivity, included for comparison
[16] = ratio of human calcitonin receptor binding IC50 to human amylin receptor binding IC50

Ratio hCT/hAmylin funct. [1, 4]	Ratio hCT/hAmylin funct. [1, 5]	pEC50 [1]	Ratio hCT/hAmylin funct. [1, 6]	pIC50 ([2]; Table 7)	Ratio rCT/rAmylin binding [2, 7]	Ratio rCT/rAmylin binding [2, 8]	Ratio rCT/rAmylin binding [2, 9]	pIC50 [3]	Ratio hCT/hAmylin binding [3, 10]	Ratio hCT/hAmylin binding [3, 11]	Ratio hCT/hAmylin binding [3, 12]	Ratio hCT/hAmylin binding [3, 13]	Ratio hCT/hAmylin binding [3, 14]	Ratio hCT/hAmylin binding [3, 15]	Ratio hCT/hAmylin binding [3, 16]	SMILES
25.8	25.8	9.50	25.8	8.89	69.9	69.9	69.9	9.22	60.7	60.7	60.7	60.7	60.7	60.7	60.7	CC[C@H](C)[C@H](NC(=O)[C@H](C)NC(=O)CNC(=O)[C@H](Cc1ccccc1)NC(=O)[C@H](CC(N)=O)NC(=O)[C@@H]1CCCN1C(=O)[C@H](CO)NC(=O)[C@H](CO)NC(=O)[C@H](Cc1c[nH]cn1)NC(=O)[C@H](CCCNC(=N)N)NC(=O)[C@H](CC(C)C)NC(=O)[C@H](Cc1ccccc1)NC(=O)[C@H](CC(N)=O)NC(=O)[C@H](C)NC(=O)[C@H](CC(C)C)NC(=O)[C@H](CCCNC(=N)N)NC(=O)[C@H](CCC(N)=O)NC(=O)[C@@H](NC(=O)[C@H](C)NC(=O)[C@@H]1CSSC[C@H](NC(=O)[C@@H](N)CCCCNC(=O)COCCOCCNC(=O)CC[C@H](NC(=O)CCCCCCCCCCCCCCCCCCC(=O)O)C(=O)O)C(=O)N[C@@H](CC(N)=O)C(=O)N[C@@H]([C@@H](C)O)C(=O)N[C@@H](C)C(=O)N[C@@H]([C@@H](C)O)C(=O)N1)[C@@H](C)O)C(=O)N1CCC[C@H]1C(=O)N[C@@H](CO)C(=O)N[C@@H](CO)C(=O)N[C@H](C(=O)N[C@@H](CC(N)=O)C(=O)N[C@H](C(=O)NCC(=O)N[C@@H](CCCNC(=N)N)C(=O)N[C@@H](CC(N)=O)C(=O)N[C@H](C(=O)N[C@@H](Cc1ccc(O)cc1)C(N)=O)[C@@H](C)O)C(C)C)[C@@H](C)O [Example 78] (H-K([AEEA-γGlu-C20 diacid])CNTATCATQRLANFLRHSSPNFGAIPSSTNVGRNTY-NH2; disulfide 2-7 (inferred))
22.5	22.5		22.5	8.97	47.7	47.7	47.7		10.8	10.8			10.8	10.8	10.8	CC[C@H](C)[C@H](NC(=O)[C@H](C)NC(=O)CNC(=O)[C@H](Cc1ccccc1)NC(=O)[C@H](CC(N)=O)NC(=O)[C@@H]1CCCN1C(=O)[C@H](CO)NC(=O)[C@H](CO)NC(=O)[C@H](Cc1c[nH]cn1)NC(=O)[C@H](CCCNC(=N)N)NC(=O)[C@H](CC(C)C)NC(=O)[C@H](Cc1ccccc1)NC(=O)[C@H](CC(N)=O)NC(=O)[C@H](C)NC(=O)[C@H](CC(C)C)NC(=O)[C@H](CCCNC(=N)N)NC(=O)[C@H](CCC(N)=O)NC(=O)[C@@H](NC(=O)[C@H](C)NC(=O)[C@@H]1CSSC[C@H](NC(=O)[C@@H](N)CCCCNC(=O)COCCOCCNC(=O)CC[C@H](NC(=O)CCCCCCCCCCCCCCCCCCC(=O)O)C(=O)O)C(=O)N[C@@H](CC(N)=O)C(=O)N[C@@H]([C@@H](C)O)C(=O)N[C@@H](C)C(=O)N[C@@H]([C@@H](C)O)C(=O)N1)[C@@H](C)O)C(=O)N1CCC[C@H]1C(=O)N[C@@H](CO)C(=O)N[C@@H](CO)C(=O)N[C@H](C(=O)N1CCC[C@H]1C(=O)N[C@H](C(=O)NCC(=O)N[C@@H](CO)C(=O)N[C@@H](CC(N)=O)C(=O)N[C@H](C(=O)N[C@@H](Cc1ccc(O)cc1)C(N)=O)[C@@H](C)O)C(C)C)[C@@H](C)O [Example 49]
10.8	10.8	10.17	10.8	10.09	77.2	77.2	77.2	10.38	51.8	51.8	51.8	51.8	51.8	51.8	51.8	CC[C@H](C)[C@H](NC(=O)[C@H](C)NC(=O)CNC(=O)[C@H](Cc1ccccc1)NC(=O)[C@H](CC(N)=O)NC(=O)[C@@H]1CCCN1C(=O)[C@H](CO)NC(=O)[C@H](CO)NC(=O)[C@H](Cc1c[nH]cn1)NC(=O)[C@H](CCCNC(=N)N)NC(=O)[C@H](CC(C)C)NC(=O)[C@H](Cc1ccccc1)NC(=O)[C@H](CC(N)=O)NC(=O)[C@H](C)NC(=O)[C@H](CC(C)C)NC(=O)[C@H](CCCNC(=N)N)NC(=O)[C@H](CCC(N)=O)NC(=O)[C@@H](NC(=O)[C@H](C)NC(=O)[C@@H]1CSSC[C@H](NC(=O)[C@@H](N)CCCCNC(=O)COCCOCCNC(=O)CC[C@H](NC(=O)CCCCCCCCCCCCCCCCCCC(=O)O)C(=O)O)C(=O)N[C@@H](CC(N)=O)C(=O)N[C@@H]([C@@H](C)O)C(=O)N[C@@H](C)C(=O)N[C@@H]([C@@H](C)O)C(=O)N1)[C@@H](C)O)C(=O)N1CCC[C@H]1C(=O)N1CCC[C@H]1C(=O)N[C@@H](CO)C(=O)N[C@H](C(=O)N[C@@H](CC(N)=O)C(=O)N[C@H](C(=O)NCC(=O)N1CCC[C@H]1C(=O)N[C@@H](CC(N)=O)C(=O)N[C@H](C(=O)N[C@@H](Cc1ccc(O)cc1)C(N)=O)[C@@H](C)O)C(C)C)[C@@H](C)O [Example 55] (H-K([AEEA-γGlu-C20 diacid])CNTATCATQRLANFLRHSSPNFGAIPPSTNVGPNTY-NH2; disulfide 2-7; N-terminus assumed)
17.4	17.4	10.42	17.4	10.16	81.7	81.7	81.7	10.42	36.0	36.0	36.0	36.0	36.0	36.0	36.0	CC[C@H](C)[C@H](NC(=O)[C@H](C)NC(=O)CNC(=O)[C@H](Cc1ccccc1)NC(=O)[C@H](CC(N)=O)NC(=O)[C@@H]1CCCN1C(=O)[C@H](CO)NC(=O)[C@H](CO)NC(=O)[C@H](Cc1c[nH]cn1)NC(=O)[C@H](CCCNC(=N)N)NC(=O)[C@H](CC(C)C)NC(=O)[C@H](Cc1ccccc1)NC(=O)[C@H](CC(N)=O)NC(=O)[C@H](C)NC(=O)[C@H](CC(C)C)NC(=O)[C@H](CCCNC(=N)N)NC(=O)[C@H](CCC(N)=O)NC(=O)[C@@H](NC(=O)[C@H](C)NC(=O)[C@@H]1CSSC[C@H](NC(=O)[C@@H](N)CCCCNC(=O)COCCOCCNC(=O)CC[C@H](NC(=O)CCCCCCCCCCCCCCCCCCC(=O)O)C(=O)O)C(=O)N[C@@H](CC(N)=O)C(=O)N[C@@H]([C@@H](C)O)C(=O)N[C@@H](C)C(=O)N[C@@H]([C@@H](C)O)C(=O)N1)[C@@H](C)O)C(=O)N1CCC[C@H]1C(=O)N[C@@H](CO)C(=O)N[C@@H](CO)C(=O)N[C@H](C(=O)N[C@@H](CC(N)=O)C(=O)N[C@H](C(=O)NCC(=O)N1CCC[C@H]1C(=O)N[C@@H](CC(N)=O)C(=O)N[C@H](C(=O)N[C@@H](Cc1ccc(O)cc1)C(N)=O)[C@@H](C)O)C(C)C)[C@@H](C)O [Example 50]
